{"source": "patent US8163709B2", "about": "“TAK1-D mediated induction of cell death in human cancer cells by specific sequence short double-stranded RNAS” (Board of Regents of the University of Texas System, priority 2008, dated 2012)", "key": {"SAPK/JNK pathway": {"test_system": "SAPK/JNK pathway", "test": "Activation of the SAPK/JNK pathway in H460 cells (Western blot)", "type": "cell-based, human", "conditions": "H460, ribotoxins 90 minutes (same concentrations)"}, "p38 MAP kinase pathway": {"test_system": "p38 MAP kinase pathway", "test": "Activation of the p38 MAP kinase pathway in H460 cells (Western blot)", "type": "cell-based, human", "excerpt": "Both siRNAs were directed against the mRNA of the same gene TLK1."}, "TAK1-D": {"target": "T1, TAK1-D (Homo sapiens, UniProt O43318)", "T1 sequence (O43318 1-491 isoform O43318-4)": "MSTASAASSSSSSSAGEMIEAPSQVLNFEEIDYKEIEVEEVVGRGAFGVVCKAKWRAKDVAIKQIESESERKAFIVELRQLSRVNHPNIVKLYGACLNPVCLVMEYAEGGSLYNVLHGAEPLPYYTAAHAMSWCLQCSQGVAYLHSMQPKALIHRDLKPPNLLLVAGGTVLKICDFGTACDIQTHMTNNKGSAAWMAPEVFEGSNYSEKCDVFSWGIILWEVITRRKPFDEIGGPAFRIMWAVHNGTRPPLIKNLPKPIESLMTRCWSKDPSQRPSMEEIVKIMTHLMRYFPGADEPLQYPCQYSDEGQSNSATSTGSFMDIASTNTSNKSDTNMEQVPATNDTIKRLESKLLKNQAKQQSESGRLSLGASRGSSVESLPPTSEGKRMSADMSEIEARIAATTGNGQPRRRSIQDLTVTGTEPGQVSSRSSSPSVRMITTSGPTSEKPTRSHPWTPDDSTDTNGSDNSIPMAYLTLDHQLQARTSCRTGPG", "test": "TAK1-D autophosphorylation on T184/T187 in H460 cells (Western blot, phospho-specific antibody)", "type": "cell-based", "set-up": "endogenous in cells; host or cells: NCI-H460", "conditions": "for activating autophosphorylation of TAK1-D on T184 and T187: H460, ribotoxins 90 minutes (same concentrations); for activating autophosphorylation (activation) of TAK1-D on T184 and T187: RNA transfected (20 nM), Western blot", "description": "In an effort to identify the MAPKKK responsible for the activation of the p38 MAP kinase and SAPK/JNK pathway, several of these kinases were screened for siRNA si5 mediated activation.\nImmunoblot analysis. Western blotting was performed exactly as described previously (Kodym et al., 2008b). In addition to the primary antibodies previously mentioned (Kodym et al., 2008b) the following antibodies were used: S6 ribosomal protein (Cell Signaling #2217), DPM1 (Santa Cruz #sc-15836, Santa Cruz, Calif., USA), and Histone H3 (Cell Signaling #9715)."}, "NF-κB": {"test_system": "NF-κB", "test": "NF-κB activation in H460 cells (EMSA, IKKα/β phosphorylation)", "type": "cell-based, human", "conditions": "10 ng/ml, 30 min, listed as IL1β", "description": "EMSA. Electrophoretic mobility shift assays for NFκB were performed as described previously (Kurland et al., 2001) using 3.5 μg of nuclear protein for each reaction.\nFIG. 16B illustrates the effect of dominant-negative TAK1-D/K63W on dsRNA si5 induced cell death. […] As a slight growth inhibition of si5 transfected H460-K63W cells can be observed in FIG. 16B it is interesting to ask whether this is caused by an incomplete suppression of TAK1-D activity or by activation of other dsRNA-dependent stress pathways. To answer this question, the activation of the transcription factor NF-κB by dsRNA si5 was tested, as it well established that dsRNA triggered activation of PKR (Zamanian-Daryoush et al., 2000), TLR3 (Jiang et al., 2003), and RIG1/Mda-5 (Hiscott et al., 2006) leads to a downstream activation of NF-κB."}, "TAK1-A": {"test_system": "TAK1-A", "test": "Autophosphorylation of the other (long) Tak1 splicing variants in H460 cells", "type": "cell-based, human", "conditions": "10 ng/ml, 30 min", "excerpt": "In contrast only the long form (TAK1-A) is able to activate the NFκB pathway through phosphorylation of IKKα/β."}, "TLK1": {"test_system": "TLK1", "test": "TLK1 post-transcriptional silencing in HeLa cells (Western blot)", "type": "cell-based, human", "conditions": "48 h after transfection", "description": "In order to test whether dsRNA molecules show the same cellular uptake and stability the efficiency of these molecules to post-transcriptionally silence the expression of TLK1 was determined as si6 as well as si5 siRNA are directed against the mRNA of this protein. […] As a loading control the unchanged expression levels of TAK1-A/B and 3-tubulin are shown in the two lower panels."}, "H460 cells": {"test_system": "H460 cells", "test": "Survival assay of H460 cells, Crystal Violet staining"}}, "note": "“Also recorded” adds a separate entry of the source. d = 2'-deoxy (DNA); r = 2'-OH (RNA)", "data": [{"compound": "CN(CC[C@H](N)CC(=O)N[C@H]1C=C[C@H](n2ccc(N)nc2=O)O[C@@H]1C(=O)O)C(=N)N", "note": "[Blasticidin S]", "values": [{"measurement": "activating phosphorylations of SAPK/JNK and its upstream kinase MKK4", "setting": "SAPK/JNK pathway", "value": "induced activating phosphorylations"}, {"measurement": "activating phosphorylations of SAPK/JNK and its upstream kinase MKK4", "setting": "SAPK/JNK pathway; listed as blasticidin S", "value": "induce an activation of p38 MAP kinase and SAPK/JNK"}, {"measurement": "activating phosphorylations of p38 MAP kinase and its upstream kinases MKK3/6", "setting": "p38 MAP kinase pathway", "value": "induced activating phosphorylations; also recorded: induce an activation of p38 MAP kinase and SAPK/JNK"}, {"measurement": "activating autophosphorylation of TAK1-D on T184 and T187", "setting": "TAK1-D", "value": "No such activation was detectable"}]}, {"compound": "C[C@@H]1C[C@@H]([C@H](O)CC2CC(=O)NC(=O)C2)C(=O)[C@@H](C)C1", "note": "[Cycloheximide]", "values": [{"measurement": "activating phosphorylations of SAPK/JNK and its upstream kinase MKK4", "setting": "SAPK/JNK pathway", "value": "induced activating phosphorylations"}, {"measurement": "activating phosphorylations of SAPK/JNK and its upstream kinase MKK4", "setting": "SAPK/JNK pathway; listed as cycloheximide", "value": "induce an activation of p38 MAP kinase and SAPK/JNK"}, {"measurement": "activating phosphorylations of p38 MAP kinase and its upstream kinases MKK3/6", "setting": "p38 MAP kinase pathway", "value": "induced activating phosphorylations; also recorded: induce an activation of p38 MAP kinase and SAPK/JNK"}, {"measurement": "activating autophosphorylation of TAK1-D on T184 and T187", "setting": "TAK1-D", "value": "No such activation was detectable"}]}, {"compound": "CN[C@@H]1[C@@H](O)[C@@H](O[C@@H]2[C@@H](O)[C@H](O[C@H]3O[C@H]([C@@H](C)O)[C@@H](O)[C@H](O)[C@H]3N)[C@@H](N)C[C@H]2N)OC[C@]1(C)O", "note": "[G418]", "values": [{"measurement": "activating phosphorylations of SAPK/JNK and its upstream kinase MKK4", "setting": "SAPK/JNK pathway", "value": "exception"}, {"measurement": "activating phosphorylations of p38 MAP kinase and its upstream kinases MKK3/6", "setting": "p38 MAP kinase pathway", "value": "exception"}]}, {"compound": "COc1ccc(C[C@H](N)C(=O)N[C@H]2[C@@H](O)[C@H](n3cnc4c(N(C)C)ncnc43)O[C@@H]2CO)cc1", "note": "[Puromycin, reference compound]", "values": [{"measurement": "activating phosphorylations of SAPK/JNK and its upstream kinase MKK4", "setting": "SAPK/JNK pathway", "value": "induced activating phosphorylations"}, {"measurement": "activating phosphorylations of p38 MAP kinase and its upstream kinases MKK3/6", "setting": "p38 MAP kinase pathway", "value": "induced activating phosphorylations"}, {"measurement": "activating autophosphorylation of TAK1-D on T184 and T187", "setting": "TAK1-D", "value": "led to an activating autophosphorylation of TAK1-D"}, {"measurement": "activating autophosphorylation of TAK1-D on T184 and T187", "setting": "TAK1-D; listed as puromycin", "value": "induce an activating TAK1-D phosphorylation"}]}, {"compound": "AU: dsRNA with alternating A and U bases (control, SEQ ID NO:21 and 22) (chain 1 AUAUAUAUAUAUAUAUAUATT; chain 2 TTUAUAUAUAUAUAUAUAUAU; chemistry not given here) [reference compound]", "values": [{"measurement": "activating autophosphorylation (activation) of TAK1-D on T184 and T187", "setting": "TAK1-D; H460 cells", "value": "does not activate the TAK1-D pathway"}]}, {"compound": "IL1: interleukin 1, positive control activating the long TAK1 variant via IL-1 receptor", "values": [{"measurement": "activation of the p38 MAP kinase pathway (MKK3/6)", "setting": "p38 MAP kinase pathway; H460 cells, 10 ng/ml IL1", "value": "activating the p38 MAP kinase pathway (MKK3/6)"}, {"measurement": "activation of the NFκB cascade (IKKα/β phosphorylation)", "setting": "NF-κB", "value": "activates the NFκB pathway"}, {"measurement": "activation of TAK1-D", "setting": "TAK1-D; H460 cells, 10 ng/ml IL-1", "value": "does not activate TAK1-D"}, {"measurement": "autophosphorylation of the long splicing variant of Tak1", "setting": "TAK1-A", "value": "autophosphorylation of the large splicing variant of Tak1 (A and B)"}, {"measurement": "autophosphorylation of the long splicing variant of Tak1", "setting": "TAK1-A; listed as IL1β", "value": "activates exclusively the long form of TAK1 (TAK1-A)"}]}, {"compound": "OmeD: si5 sequence with 2′-O-methyl on both strands (SEQ ID NO:23 and 24) (chain 1 GGCUUUUGACCUUUAUGAAUU; chain 2 UUCCGAAAACUGGAAAUACUU; siRNA; 2'-O-methyl at dot-marked bases on both strands, pattern not given here; one strand is listed 3' to 5')", "values": [{"measurement": "activating autophosphorylation (activation) of TAK1-D on T184 and T187", "setting": "TAK1-D; H460 cells", "value": "no activation of Tak1-D could be detected"}, {"measurement": "expression level of TLK1", "setting": "TLK1", "value": "very significant reduction in the expression of TLK1"}]}, {"compound": "OmeS: si5 sequence with several bases of the sense strand 2′-O-methyl modified (SEQ ID NO:25 and 26) (chain 1 GGCUUUUGACCUUUAUGAAUU; chain 2 TTCCGAAAACUGGAAAUACUU; 2'-O-methyl on sense strand bases, chemistry not fully specified; one strand is listed 3' to 5')", "values": [{"measurement": "expression level of TLK1", "setting": "TLK1", "value": "very significant reduction in the expression of TLK1"}]}, {"compound": "shRNA: short hairpin RNA containing the si5 sequence, in vitro transcribed with T7 RNA polymerase (SEQ ID NO:20) (GGCUUUUGACCUUUAUGAAUUAAUUCAUAAAGGUCAAAAGCC; siRNA; RNA, phosphodiester; hairpin)", "values": [{"measurement": "cell death, crystal violet", "setting": "H460 cells; H460, 48 hours after transfection, shRNA experiment", "value": "led to cell death"}]}, {"compound": "si5OMeA: si5 sequence with U and G 2′-O-methylated in the antisense strand only (SEQ ID NO:27 and 28) (chain 1 GGCUUUUGACCUUUAUGAATT; chain 2 UUCCGAAAACUGGAAAUACUU; 2'-O-methyl U and G in antisense strand, chemistry not fully specified; one strand is listed 3' to 5')", "values": [{"measurement": "expression level of TLK1", "setting": "TLK1", "value": "very significant reduction in the expression of TLK1"}]}, {"compound": "si5d: si5 with one U of the homopolymeric stretch changed to a C (SEQ ID NO:19) (GGCUUCUGACCUUUAUGAATT; siRNA; sugars from the 5' end r19 d2, backbone not given here)", "values": [{"measurement": "activating autophosphorylation (activation) of TAK1-D on T184 and T187", "setting": "TAK1-D; H460 cells", "value": "significantly reduced the capacity of the molecule to activate TAK1-D"}, {"measurement": "expression level of TLK1", "setting": "TLK1", "value": "very significant reduction in the expression of TLK1"}]}, {"compound": "si5l: si5 extended by adding 2 ribonucleotides (SEQ ID NO:18) (GGCUUUUGACCUGUUUAUGAATT; siRNA; sugars from the 5' end r21 d2, backbone not given here)", "values": [{"measurement": "activation of the p38 MAP kinase pathway (phosphorylation of MKK3/6, p38 MAPK)", "setting": "p38 MAP kinase pathway; H460 cells, 20 nM RNA, 2-6 h", "value": "small activation of Tak1-D and p38 MAPK could still be observed"}, {"measurement": "activating autophosphorylation (activation) of TAK1-D on T184 and T187", "setting": "TAK1-D; H460 cells", "value": "significantly reduced its activity"}, {"measurement": "expression level of TLK1", "setting": "TLK1", "value": "lack of post-transcriptional silencing of TLK1"}]}, {"compound": "si5s: si5 with two ribonucleotides in the middle of the molecule deleted (SEQ ID NO:17) (GGCUUUUGACUUAUGAATT; siRNA; sugars from the 5' end r17 d2, backbone not given here)", "values": [{"measurement": "activating autophosphorylation (activation) of TAK1-D on T184 and T187", "setting": "TAK1-D; H460 cells", "value": "completely abolished its ability to activate Tak1-D"}, {"measurement": "expression level of TLK1", "setting": "TLK1", "value": "lack of post-transcriptional silencing of TLK1"}]}, {"compound": "si6: control 21-mer siRNA against TLK1 mRNA: GGGUGGAAAUGGCUCAAGUtt (SEQ ID NO: 4) / gtCCCACCUUUACCGAGUUCA (SEQ ID NO: 5) (sense GGGUGGAAAUGGCUCAAGUTT; antisense GTCCCACCUUUACCGAGUUCA; Artificial primer) [reference compound]", "values": [{"measurement": "cytotoxicity, Crystal Violet", "setting": "H460 cells; H460, concentration range tested (up to 20 nM), 48 h", "value": "does not show any significant cytotoxicity"}]}]}
